Measurements taken from patent publication US20140287460A1, “PRODUCTION OF R[…] IN INSECT CELLS USING A B[…]” (GBIOTECH SARL, priority 2011, published 2014).

Experiments:
[1] = tested on: bMON14272-pE2 infected SF21 cells; assay: Baculovirus virion suppression test, end point dilution assay (Example 2); format: cell-based
Description: FIG. 7: Example 2. A) Generation of composite baculovirus DNA containing expression cassettes X, Y, and Z as described in FIG. 6. Baculovirus DNA bMON14272 (left) contains expression cassette Z encoding native vp80 protein. The transfer vector pE2 (right) contains expression cassettes X and Y encoding the ecdysone activator protein and shRNA, respectively. In transfer vector pE2, direction of transcription 5′ to 3′ for expression cassettes X and Y is indicated by arrows. Promoter sequences pe38 for ecdysone activator and ie-2 minimal for shRNA are indicated as are the DNA binding sites for ecdysone activator protein. Fusion of the transfer vector pE2 and bMON14272 is carried out by Tn7 transposition (indicated by the dashed cross). B) Comparison of budded infectious virus production from inducible bMON14272-pE2 (left) and non-inducible bMON14272-pDual (right) in the presence and absence of inducer molecule RG-102240. Baculovirus infected SF21 cells are incubated for 72 hours in the presence, or absence of 0.5 μM RG-102240 (indicated by + or −, bottom). […] S.E.M of three measurements is indicated by dark bars on the top of the graphs.
Other algorithms may be analogously used. […] Expression cassette Y is under control of the ie2 minimal promoter (Protein Expression and Purification 42, 236-245).
Baculovirus virion suppression tests are carried out as follows. 10 milliliters of SF21 cells in suspension culture (Nature Methods 3, 1021-1032) at density 0.5×10^6 cells/ml are infected at multiplicity of infection (M.O.I) of 1.0 with either bMON14272-pE2 or bMON14272-pFastbac Dual initial transfection virus either in the presence, or absence of 0.5 μM RG-102240 (FIG. 7B). […]
(§1) Quantification of effectiveness of RG-102240-mediated suppression of generation of baculovirus virion through shRNA targeting of the essential virus capsid protein vp80 as described above is carried out by comparing the results of the end point dilution assay with and without RG-102240-mediated expression of shRNA. […]

[2] = tested on: bMON14272-pFastbac Dual infected SF21 cells; assay: Baculovirus virion suppression test, end point dilution assay, negative control virus (Example 2); format: cell-based; conditions: addition of 0.5 μM RG-102240, SF21 cells, 72 hours, FIG. 7B right
Description: FIG. 7: Example 2. A) Generation of composite baculovirus DNA containing expression cassettes X, Y, and Z as described in FIG. 6. Baculovirus DNA bMON14272 (left) contains expression cassette Z encoding native vp80 protein. The transfer vector pE2 (right) contains expression cassettes X and Y encoding the ecdysone activator protein and shRNA, respectively. In transfer vector pE2, direction of transcription 5′ to 3′ for expression cassettes X and Y is indicated by arrows. Promoter sequences pe38 for ecdysone activator and ie-2 minimal for shRNA are indicated as are the DNA binding sites for ecdysone activator protein. Fusion of the transfer vector pE2 and bMON14272 is carried out by Tn7 transposition (indicated by the dashed cross). B) Comparison of budded infectious virus production from inducible bMON14272-pE2 (left) and non-inducible bMON14272-pDual (right) in the presence and absence of inducer molecule RG-102240. Baculovirus infected SF21 cells are incubated for 72 hours in the presence, or absence of 0.5 μM RG-102240 (indicated by + or −, bottom). […]
as §1

[3] = induced with 0.5 μM RG-102240, SF21 cells, 72 hours

Question: With `CCc1c(OC)cccc1C(=O)NN(C(=O)c1cc(C)cc(C)c1)C(C)(C)C` [RG-102240] as the compound, how does the “reduction of virus titers relative to prior art systems (bMON14272-pFastbac Dual)” value [1, 3] read?
Answer: more than three fold

Question: And the “reduction of virus titers relative to uninduced bMON14272-pE2” value [1, 3]?
Answer: more than three fold

Question: What about the “levels of budded virus production (infectious virus titre)” value ([1]; presence vs absence of 0.5 μM RG-102240, SF21 cells, M.O.I 1.0, 72 hours, FIG. 7B left) of the same compound?
Answer: significantly reduced

Question: And the “effect on baculovirus virion production” value [2]?
Answer: no statistically significant effect
